According to US8507538B2, “Selective heterocyclic sphingosine 1 phosphate receptor modulators” (Receptos, Inc., priority 2009, dated 2013):
Counter-ions that a name gives are not always drawn.

Molecular target: S1P1/EDG1 (Homo sapiens, UniProt P21453)
Assay: S1P1 CRE-bla CHOK1 reporter assay (inhibition of Forskolin induced cAMP)
Assay type: cell-based
Details: agonist activity range, Table 2; read-out: S1P1 ACTIVITY
Excerpt: A mammalian expression plasmid containing S1P1/EDG1 cloned into pcDNA3.1 was purchased from Missouri S&T cDNA Resource Centre. The nucleotide and amino acid sequence of human S1P1/EDG1 are published in Hla and Maciag (J Biol Chem, 265(1990), 9308-9313). S1P1/pcDNA3.1 was transfected into the CRE-bla CHO K1 (Invitrogen) cell line, and stable single cell clones were selected using standard techniques. Expression of functional SIP1/EDG1 receptor was confirmed by cell surface FACS with a S1P1 antibody (R&D Systems, clone 218713) and S1P-mediated inhibition of Forskolin induced cAMP.
Cells were seeded into 384-well black wall/clear bottom plates at 10^4 cells/well/19.5 μl assay media (DMEM-phenol free, 0.5% charcoal/dextran stripped serum, 2 mM glutamine, 0.1 mM NEAA, 1 mM Na-Pyruvate, 25 mM Hepes) and incubated for 18 hrs at 37° C. in 5% CO2. Dose response curves (10-point) were generated in 10 mM Hepes, 0.1% Pluronic F127, in the presence of Forskolin. Cells were treated with 0.5 μl compound in the presence of 2 μM Forskolin for 4 hrs at 37° C. The FRET-based β-lactamase fluorescent substrate (LiveBLAzer™ FRET B/G Loading Kit CC4-AM; Invitrogen) was prepared according to manufacturer's directions, and incubated with cells for 2 hrs at room temperature. Plates were read at Ex:410/Em:458 and Ex:410/Em:522, and the response ratio determined. Data was analyzed by non-linear regression to determine the EC50 for inhibition of Forskolin induced cAMP.

S1P1/EDG1, sequence (P21453 whole entry): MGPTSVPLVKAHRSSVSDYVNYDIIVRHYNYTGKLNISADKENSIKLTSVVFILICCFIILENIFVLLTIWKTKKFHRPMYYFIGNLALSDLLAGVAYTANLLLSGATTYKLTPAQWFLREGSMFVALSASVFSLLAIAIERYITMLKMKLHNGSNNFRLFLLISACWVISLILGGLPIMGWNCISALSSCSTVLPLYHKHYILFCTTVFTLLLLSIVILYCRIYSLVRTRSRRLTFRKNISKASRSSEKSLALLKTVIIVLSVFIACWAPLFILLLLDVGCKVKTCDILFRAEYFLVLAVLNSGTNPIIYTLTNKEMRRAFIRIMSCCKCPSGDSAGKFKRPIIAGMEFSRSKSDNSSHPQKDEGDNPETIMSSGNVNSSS

## CC(C)Oc1ccc(-c2nnc(-c3cccc4c3CCC4O)s2)cc1C#N (stereo in doubt) [Compound 2, (R)-5-(5-(1-hydroxy-2,3-dihydro-1H-inden-4-yl) -1,3,4-thiadiazol-2-yl)-2-isopropoxybenzonitrile]
  EC50: 0.05 to 0.5 nM

## CC(C)Oc1ccc(-c2nnc(-c3cccc4c3CCC4N)s2)cc1C#N (stereo in doubt) [Compound 5, (R)-5-(5-(1-amino-2,3-dihydro-1H-inden-4-yl)-1,3,4-thiadiazol-2-yl) -2 isopropoxybenzonitrile hydrochloride]
  EC50: 0.5 to 5 nM

## CC(C)Oc1ccc(-c2nnc(-c3cccc4c3CCC4NCCO)s2)cc1C#N (stereo in doubt) [Compound 17, (R)-5-(5-(1-((2-hydroxyethyl)amino)-2,3-dihydro-1H-inden-4-yl)-1,3,4-thiadiazol-2-yl)-2-isopropoxybenzonitrile]
  EC50: 0.05 to 0.5 nM

## CC(C)Oc1ccc(-c2nnc(-c3cccc4c3CCC4NCC(=O)N(C)C)s2)cc1C#N (stereo in doubt) [Compound 22, (R)-2-((4-(5-(3-cyano-4-isopropoxyphenyl)-1,3,4-thiadiazol-2-yl)-2,3-dihydro-1H-inden-1-yl)amino)-N,N-dimethylacetamide hydrochloride]
  EC50: 0.05 to 0.5 nM

## CC(C)Oc1ccc(-c2nnc(-c3cccc4c3CCC4NCC(=O)O)s2)cc1C#N (stereo in doubt) [Compound 27, (R)-2-((4-(5-(3-cyano-4-isopropoxyphenyl)-1,3,4-thiadiazol-2-yl)-2,3-dihydro-1H-inden-1-yl)amino)acetic acid]
  EC50: 0.05 to 0.5 nM

## CC(C)Oc1ccc(-c2nnc(-c3cccc4c3CCC4NCc3ncc[nH]3)s2)cc1C#N (stereo in doubt) [Compound 29, (R)-5-(5-(1-(((1H-imidazol-2-yl)methyl)amino)-2,3-dihydro-1H-inden-4-yl)-1,3,4-thiadiazol-2-yl) -2-isopropoxybenzonitrile]
  EC50: 0.05 to 0.5 nM

## CC(C)Oc1ccc(-c2nnc(-c3cccc4c3CCC4NCCS(C)(=O)=O)s2)cc1C#N (stereo in doubt) [Compound 32, (R)-2-isopropoxy-5-(5-(1-((2-(methylsulfonyl)ethyl)amino)-2,3-dihydro-1H-inden-4-yl)-1,3,4-thiadiazol-2-yl)benzonitrile]
  EC50: < 0.05 nM

## CC(C)Oc1ccc(-c2nnc(-c3cccc4c3CCC4NS(C)(=O)=O)s2)cc1C#N (stereo in doubt) [Compound 34, (R)-N-(4-(5-(3-cyano-4-isopropoxyphenyl)-1,3,4-thiadiazol-2-yl)-2,3-dihydro-1H-inden-1-yl)methanesulfonamide]
  EC50: 0.05 to 0.5 nM

## CC(C)Oc1ccc(-c2nnc(-c3cccc4c3CC[C@@H]4NS(=O)(=O)CCN3CCC(O)C3)s2)cc1C#N (stereo in doubt) [Compound 37, N-((S)-4-(5-(3-cyano-4-isopropoxyphenyl)-1,3,4-thiadiazol-2-yl)-2,3-dihydro-1H-inden-1-yl)-2-((R)-3-hydroxypyrrolidin-1-yl)ethanesulfonamide]
  EC50: 0.5 to 5 nM

## CC(C)Oc1ccc(-c2nnc(-c3cccc4c3CC[C@H]4NS(=O)(=O)CCN3CC[C@@H](O)C3)s2)cc1C#N (stereo in doubt) [Compound 38, N-((R)-4-(5-(3-cyano-4-isopropoxyphenyl)-1,3,4-thiadiazol-2-yl)-2,3-dihydro-1H -inden-1-yl)-2-((R)-3-hydroxypyrrolidin-1-yl)ethanesulfonamide]
  EC50: 0.5 to 5 nM

## CC(C)Oc1ccc(-c2nnc(-c3cccc4c3CCC4NS(=O)(=O)CC(=O)O)s2)cc1C#N (stereo in doubt) [Compound 41, (R)-2-(N-(4-(5-(3-cyano-4-isopropoxyphenyl)-1,3,4-thiadiazol-2-yl)-2,3-dihydro-1H-inden-1-yl)sulfamoyl)acetic acid]
  EC50: < 0.05 nM

## CC(C)Oc1ccc(-c2nnc(-c3cccc4c3CCC4NS(N)(=O)=O)s2)cc1C#N (stereo in doubt) [Compound 48, (R)-N-(4-(5-(3-cyano-4-isopropoxyphenyl)-1,3,4-thiadiazol-2-yl)-2,3-dihydro-1H-inden-1-yl)sulfamide]
  EC50: < 0.05 nM

## CC(C)Oc1ccc(-c2nnc(-c3cccc4c3CCC4NC(=O)N3CC[C@H](N(C)C)C3)s2)cc1C#N (stereo in doubt) [Compound 57, (S)-N-((R)-4-(5-(3-cyano-4-isopropoxyphenyl)-1,3,4-thiadiazol-2-yl)-2,3-dihydro-1H-inden-1-yl)-3-(dimethylamino)pyrrolidine-1-carboxamide]
  EC50: 0.5 to 5 nM

## CC(C)Oc1ccc(-c2ncc(-c3cccc4c3CCC4O)s2)cc1C#N (stereo in doubt) [Compound 69, (R)-5-(5-(1-hydroxy-2,3-dihydro-1H-inden-4-yl)thiazol-2-yl)-2-isopropoxy benzonitrile]
  EC50: 0.05 to 0.5 nM

## CC(C)Oc1ccc(-c2ncc(-c3cccc4c3CCC4NCCO)s2)cc1C#N (stereo in doubt) [Compound 91, (R)-5-(5-(1-((2-hydroxyethyl)amino)-2,3-dihydro-1H-inden-4-yl)thiazol-2-yl) -2-isopropoxybenzonitrile]
  EC50: 0.5 to 5 nM

## CC(C)Oc1ccc(-c2ncc(-c3cccc4c3CCC4NCC(=O)O)s2)cc1C#N (stereo in doubt) [Compound 96, (R)-2-((4-(2-(3-cyano-4-isopropoxyphenyl)thiazol-5-yl)-2,3-dihydro-1H-inden-1-yl)amino)acetic acid]
  EC50: 0.05 to 0.5 nM

## CC(C)Oc1ccc(-c2ncc(-c3cccc4c3CCC4NCC(=O)N3CC[C@H](O)C3)s2)cc1C#N (stereo in doubt) [Compound 102, 5-(5-((R)-1-((2-((S)-3-hydroxypyrrolidin-1-yl)-2-oxoethyl)amino)-2,3-dihydro-1H-inden-4-yl)thiazol-2-yl)-2-isopropoxybenzonitrile hydrochloride]
  EC50: 0.05 to 0.5 nM

## CC(C)Oc1ccc(-c2ncc(-c3cccc4c3CCC4NCc3ncc[nH]3)s2)cc1C#N (stereo in doubt) [Compound 109, (R)-5-(5-(1-(((1H-imidazol-2-yl)methyl)amino)-2,3-dihydro-1H-inden-4-yl)thiazol-2-yl)-2-isopropoxybenzonitrile]
  EC50: 0.5 to 5 nM

## CC(C)Oc1ccc(-c2ncc(-c3cccc4c3CCC4NS(C)(=O)=O)s2)cc1C#N (stereo in doubt) [Compound 111, (R)-N-(4-(2-(3-cyano-4-isopropoxyphenyl)thiazol-5-yl)-2,3-dihydro-1H-inden-1-yl)methanesulfonamide]
  EC50: 0.05 to 0.5 nM

## CC(C)Oc1ccc(-c2ncc(-c3cccc4c3CC[C@@H]4NS(=O)(=O)CCN3CCCC(O)C3)s2)cc1C#N (stereo in doubt) [Compound 141, N-((S)-4-(2-(3-cyano-4-isopropoxyphenyl)thiazol-5-yl)-2,3-dihydro-1H-inden-1-yl)-2-((R)-3-hydroxypiperidin-1-yl)ethanesulfonamide]
  EC50: 0.5 to 5 nM

## CC(C)Oc1ccc(-c2ncc(-c3cccc4c3CC[C@H]4NS(=O)(=O)CCN3CCC[C@@H](O)C3)s2)cc1C#N (stereo in doubt) [Compound 143, N-((R)-4-(2-(3-cyano-4-isopropoxyphenyl)thiazol-5-yl)-2,3-dihydro-1H-inden-1-yl)-2-((R)-3-hydroxypiperidin-1-yl)ethanesulfonamide]
  EC50: 0.5 to 5 nM

## COC(=O)CS(=O)(=O)NC1CCc2c(-c3cnc(-c4ccc(OC(C)C)c(C#N)c4)s3)cccc21 (stereo in doubt) [Compound 154, (R)-methyl 2-(N-(4-(2-(3-cyano-4-isopropoxyphenyl)thiazol-5-yl)-2,3-dihydro-1H-inden-1-yl)sulfamoyl)acetate]
  EC50: 0.05 to 0.5 nM

## CC(C)Oc1ccc(-c2ncc(-c3cccc4c3CCC4NS(=O)(=O)CC(=O)O)s2)cc1C#N (stereo in doubt) [Compound 158, (R)-2-(N-(4-(2-(3-cyano-4-isopropoxyphenyl)thiazol-5-yl)-2,3-dihydro-1H-inden-1-yl)sulfamoyl)acetic acid]
  EC50: < 0.05 nM

## CC(C)Oc1ccc(-c2ncc(-c3cccc4c3CCC4NS(=O)(=O)CC(=O)N3CCOCC3)s2)cc1C#N (stereo in doubt) [Compound 162, (R)—N-(4-(2-(3-cyano-4-isopropoxyphenyl)thiazol-5-yl)-2,3-dihydro-1H-inden-1-yl)-2-morpholino-2-oxoethanesulfonamide]
  EC50: 0.05 to 0.5 nM

## CC(C)Oc1ccc(-c2ncc(-c3cccc4c3CCC4NS(=O)(=O)CCO)s2)cc1C#N (stereo in doubt) [Compound 164, (R)-N-(4-(2-(3-cyano-4-isopropoxyphenyl)thiazol-5-yl)-2,3-dihydro-1H-inden-1-yl)-2-hydroxyethanesulfonamide]
  EC50: 0.05 to 0.5 nM

## CC(C)Oc1ccc(-c2ncc(-c3cccc4c3CCC4NCCS(C)(=O)=O)s2)cc1C#N (stereo in doubt) [Compound 220, (R)-2-isopropoxy-5-(5-(1-((2-(methylsulfonyl)ethyl)amino)-2,3-dihydro-1H-inden-4-yl)thiazol-2-yl)benzonitrile]
  EC50: 0.05 to 0.5 nM

## CC(C)Oc1ccc(-c2nnc(-c3cccc4c3CC[C@@H]4O)s2)cc1C#N [Compound 1, (S)-5-(5-(1-hydroxy-2,3-dihydro-1H-inden-4-yl)-1,3,4-thiadiazol-2-yl)-2-isopropoxybenzonitrile]
  EC50: 0.05 to 0.5 nM

## CCOc1ccc(-c2nnc(-c3cccc4c3CCC4O)s2)cc1OCC (stereo not shown) [Compound 3]
  EC50: 0.5 to 5 nM
